What was measured:
Assay in all cases: Test E preemergence
Format in all cases: in vivo
[1] = test system: ragweed (common ragweed, Ambrosia elatior); conditions: scale 0 to 100
Procedure, shortened: (§1)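 Greenhouse test: seeds in silt loam treated preemergence, or 1- to 4-leaf plants in peat-based potting medium treated postemergence, with surfactant-containing solvent formulation of compound; assessed 14 to 21 d later. Scores use a 0 to 100 scale where 100 means complete control.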

[2] = test system: ryegrass, Italian (Italian ryegrass, Lolium multiflorum); conditions: scale 0 to 100
Procedure, shortened: as §1

[3] = test system: corn (Zea mays); conditions: scale 0 to 100
Procedure, shortened: as §1

[4] = test system: Kochia (Kochia scoparia); conditions: scale 0 to 100
Procedure, shortened: as §1

[5] = test system: dayflower, VA (Virginia dayflower, Commelina virginica); conditions: scale 0 to 100
Procedure, shortened: as §1

[6] = test system: foxtail, giant (giant foxtail, Setaria faberii); conditions: scale 0 to 100
Procedure, shortened: as §1

[7] = test system: foxtail, green (green foxtail, Setaria viridis); conditions: scale 0 to 100
Procedure, shortened: as §1

[8] = test system: crabgrass, Brazil (Brazilian crabgrass, Digitaria horizontalis); conditions: scale 0 to 100
Procedure, shortened: as §1

[9] = test system: nutsedge, yellow (yellow nutsedge, Cyperus esculentus); conditions: scale 0 to 100
Procedure, shortened: as §1

[10] = test system: horseweed (Conyza canadensis); conditions: 31 g ai/ha, scale 0 to 100
Procedure, shortened: as §1

[11] = test system: beggarticks (hairy beggarticks, Bidens pilosa); conditions: scale 0 to 100
Procedure, shortened: as §1

[12] = test system: field bindweed (Convolvulus arvensis); conditions: scale 0 to 100
Procedure, shortened: as §1

[13] = test system: Panicum, fall (fall Panicum, Panicum dichotomiflorum); conditions: scale 0 to 100
Procedure, shortened: as §1

[14] = test system: velvetleaf (Abutilon theophrasti); conditions: scale 0 to 100
Procedure, shortened: as §1

[15] = test system: soybean (Glycine max); conditions: scale 0 to 100
Procedure, shortened: as §1

[16] = test system: surinam grass (Brachiaria decumbens); conditions: scale 0 to 100
Procedure, shortened: as §1

[17] = test system: goosegrass (Eleusine indica); conditions: scale 0 to 100
Procedure, shortened: as §1

[18] = test system: arrowleaf Sida (Sida rhombifolia); conditions: scale 0 to 100
Procedure, shortened: as §1

[19] = test system: pigweed, palmer (palmer pigweed, Amaranthus palmeri); conditions: scale 0 to 100
Procedure, shortened: as §1

[20] = test system: barnyardgrass (Echinochloa crus-galli); conditions: scale 0 to 100
Procedure, shortened: as §1

[21] = test system: morningglory (Ipomoea coccinea); conditions: scale 0 to 100
Procedure, shortened: as §1

CN1CC(c2cccc(C(F)(F)F)c2)C(C(=O)Nc2ccccc2S(C)(=O)=O)C1=O (stereo not drawn) [Compound 637]
90: Plant response rating: Kochia ([4]; 125 g ai/ha) | Plant response rating: Kochia ([4]; 250 g ai/ha) | Plant response rating: Panicum, Fall ([13]; 125 g ai/ha) | Plant response rating: Surinam Grass ([16]; 250 g ai/ha) | Plant response rating: Goosegrass ([17]; 250 g ai/ha)
25: Plant response rating: Soybean ([15]; 125 g ai/ha)
50: Plant response rating: Ryegrass, Italian ([2]; 62 g ai/ha) | Plant response rating: Surinam Grass ([16]; 62 g ai/ha)
95: Plant response rating: Foxtail, Giant ([6]; 62 g ai/ha) | Plant response rating: Foxtail, Green ([7]; 125 g ai/ha) | Plant response rating: Crabgrass, Brazil ([8]; 250 g ai/ha) | Plant response rating: Panicum, Fall ([13]; 250 g ai/ha) | Plant response rating: Barnyardgrass ([20]; 250 g ai/ha)
0: Plant response rating: Ragweed ([1]; 31 g ai/ha) | Plant response rating: Ragweed ([1]; 62 g ai/ha) | Plant response rating: Ryegrass, Italian ([2]; 31 g ai/ha) | Plant response rating: Corn ([3]; 31 g ai/ha) | Plant response rating: Corn ([3]; 62 g ai/ha) | Plant response rating: Kochia ([4]; 31 g ai/ha) | Plant response rating: Dayflower, VA ([5]; 31 g ai/ha) | Plant response rating: Dayflower, VA ([5]; 62 g ai/ha) | Plant response rating: Dayflower, VA ([5]; 125 g ai/ha) | Plant response rating: Nutsedge, Yellow ([9]; 31 g ai/ha) | Plant response rating: Nutsedge, Yellow ([9]; 62 g ai/ha) | Plant response rating: Nutsedge, Yellow ([9]; 125 g ai/ha) | Plant response rating: Horseweed [10] | Plant response rating: Beggarticks ([11]; 31 g ai/ha) | Plant response rating: Beggarticks ([11]; 62 g ai/ha) | Plant response rating: Beggarticks ([11]; 125 g ai/ha) | Plant response rating: Beggarticks ([11]; 250 g ai/ha) | Plant response rating: Field Bindweed ([12]; 31 g ai/ha) | Plant response rating: Field Bindweed ([12]; 62 g ai/ha) | Plant response rating: Field Bindweed ([12]; 125 g ai/ha) | Plant response rating: Panicum, Fall ([13]; 31 g ai/ha) | Plant response rating: Velvetleaf ([14]; 31 g ai/ha) | Plant response rating: Velvetleaf ([14]; 62 g ai/ha) | Plant response rating: Soybean ([15]; 31 g ai/ha) | Plant response rating: Goosegrass ([17]; 31 g ai/ha) | Plant response rating: Goosegrass ([17]; 62 g ai/ha) | Plant response rating: Arrowleaf Sida ([18]; 31 g ai/ha) | Plant response rating: Arrowleaf Sida ([18]; 62 g ai/ha) | Plant response rating: Arrowleaf Sida ([18]; 125 g ai/ha) | Plant response rating: Arrowleaf Sida ([18]; 250 g ai/ha) | Plant response rating: Pigweed, Palmer ([19]; 31 g ai/ha) | Plant response rating: Pigweed, Palmer ([19]; 62 g ai/ha) | Plant response rating: Pigweed, Palmer ([19]; 125 g ai/ha) | Plant response rating: Morningglory ([21]; 31 g ai/ha) | Plant response rating: Morningglory ([21]; 62 g ai/ha)
20: Plant response rating: Ragweed ([1]; 125 g ai/ha) | Plant response rating: Dayflower, VA ([5]; 250 g ai/ha)
65: Plant response rating: Foxtail, Green ([7]; 31 g ai/ha) | Plant response rating: Goosegrass ([17]; 125 g ai/ha) | Plant response rating: Pigweed, Palmer ([19]; 250 g ai/ha)
30: Plant response rating: Velvetleaf ([14]; 125 g ai/ha)
40: Plant response rating: Kochia ([4]; 62 g ai/ha)
75: Plant response rating: Foxtail, Giant ([6]; 31 g ai/ha) | Plant response rating: Foxtail, Green ([7]; 62 g ai/ha) | Plant response rating: Crabgrass, Brazil ([8]; 31 g ai/ha) | Plant response rating: Surinam Grass ([16]; 125 g ai/ha)
85: Plant response rating: Ragweed ([1]; 250 g ai/ha) | Plant response rating: Crabgrass, Brazil ([8]; 62 g ai/ha) | Plant response rating: Barnyardgrass ([20]; 31 g ai/ha)
80: Plant response rating: Barnyardgrass ([20]; 125 g ai/ha)
98: Plant response rating: Foxtail, Giant ([6]; 125 g ai/ha) | Plant response rating: Foxtail, Giant ([6]; 250 g ai/ha) | Plant response rating: Foxtail, Green ([7]; 250 g ai/ha) | Plant response rating: Crabgrass, Brazil ([8]; 125 g ai/ha)
70: Plant response rating: Corn ([3]; 250 g ai/ha) | Plant response rating: Barnyardgrass ([20]; 62 g ai/ha)
10: Plant response rating: Soybean ([15]; 62 g ai/ha) | Plant response rating: Surinam Grass ([16]; 31 g ai/ha)
35: Plant response rating: Ryegrass, Italian ([2]; 125 g ai/ha) | Plant response rating: Ryegrass, Italian ([2]; 250 g ai/ha) | Plant response rating: Corn ([3]; 125 g ai/ha) | Plant response rating: Nutsedge, Yellow ([9]; 250 g ai/ha) | Plant response rating: Field Bindweed ([12]; 250 g ai/ha) | Plant response rating: Panicum, Fall ([13]; 62 g ai/ha) | Plant response rating: Velvetleaf ([14]; 250 g ai/ha) | Plant response rating: Soybean ([15]; 250 g ai/ha) | Plant response rating: Morningglory ([21]; 125 g ai/ha) | Plant response rating: Morningglory ([21]; 250 g ai/ha)

— patent US12077503B2, “Substituted cyclic amides and their use as herbicides” (FMC CORPORATION, priority 2015, dated 2024)
